Patent publication US20090048258A1, “Amide Compound” (priority 2005, published 2009)
Where two headings read alike, the source gives them in different places.

Target: T1, Human DGAT1 (Homo sapiens, UniProt O75907)
T1 construct: my translation of the primer: M-G-DYKDDDD-GDRGSSRRR) (N); made in house; host or cells: Sf9 insect cells (recombinant baculovirus BAC-DGAT1, pFASTBAC1); microsome fraction
T1 sequence (O75907 1-488): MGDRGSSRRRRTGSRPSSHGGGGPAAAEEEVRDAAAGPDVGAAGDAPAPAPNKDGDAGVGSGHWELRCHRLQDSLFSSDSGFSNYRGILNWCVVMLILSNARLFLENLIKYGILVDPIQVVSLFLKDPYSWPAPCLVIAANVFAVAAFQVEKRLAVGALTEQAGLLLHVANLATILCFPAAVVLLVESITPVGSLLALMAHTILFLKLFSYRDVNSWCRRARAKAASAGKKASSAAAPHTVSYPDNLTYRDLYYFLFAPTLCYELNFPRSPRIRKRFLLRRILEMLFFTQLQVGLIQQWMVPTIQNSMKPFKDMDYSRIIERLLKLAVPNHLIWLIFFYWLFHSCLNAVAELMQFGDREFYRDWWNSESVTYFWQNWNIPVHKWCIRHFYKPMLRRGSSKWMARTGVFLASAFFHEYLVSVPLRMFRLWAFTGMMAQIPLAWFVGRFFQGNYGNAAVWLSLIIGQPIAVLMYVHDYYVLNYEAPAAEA
Test: DGAT inhibitory activity: [14C]-triglyceride synthesis by DGAT1 high expression Sf9 microsome
Type: biochemical
Details: 25 μM [14C]-Oleoyl-CoA, 32° C., 15 min, read-out: DGAT inhibitory activity (according to IC50)
Outline: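 DGAT1 was overexpressed from recombinant baculovirus in Sf9 cells, and microsomes from these cells were the enzyme source. Reactions ran in 100 mM Tris-HCl pH 7.5, 250 mM sucrose, 150 mM MgCl2 and 0.01% BSA. [14C]-triglyceride was extracted into chloroform, separated by TLC and quantified by imaging plate, with inhibition calculated against control and blank (no microsome) counts.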

[1] = Table 2, 25 μM dioleoylglycerol
[2] = Table 1, 25 μM dioleoylglycerol

IC50 [1] [nM]	IC50 [2] [nM]	Structure (SMILES)
50 to 500		CC(=O)c1cccc(-c2cc(NC(=O)CCC(=O)c3ccc4c(c3)CCO4)nc(-c3ccccc3)c2)c1 [Example 171, N-[4-(3-acetylphenyl)-6-phenylpyridin-2-yl]-4-(2,3-dihydro-1-benzofuran-5-yl)-4-oxobutanamide]
	50 to 500	CCOC(=O)Cc1ccc(C(=O)CCC(=O)Nc2nc(-c3ccccc3)c(Cc3ccccc3)s2)cc1 [Example 34]
	10 to 50	CCOC(=O)/C=C/c1cc(C(=O)CCC(=O)Nc2nc(-c3ccccc3)c(Cc3ccccc3)s2)ccc1OCC [Example 30, ethyl (2E)-3-(5-{4-[(5-benzyl-4-phenyl-1,3-thiazol-2-yl)amino]-4-oxobutanoyl}-2-ethoxyphenyl)acrylate]
50 to 500		CCCCc1ccc(C(=O)c2sc(NC(=O)CCC(=O)c3cc(OCC)c(OCC)cc3C)nc2-c2ccccc2)cc1 [Example 69, N-[5-(4-butylbenzoyl)-4-phenyl-1,3-thiazol-2-yl]-4-(4,5-diethoxy-2-methylphenyl)-4-oxobutanamide]
	50 to 500	O=C(CCC(=O)c1ccc(OC(F)(F)F)cc1)Nc1nc(-c2ccccc2)c(Cc2ccccc2)s1 [Example 28, N-(5-benzyl-4-phenyl-1,3-thiazol-2-yl)-4-oxo-4-[4-(trifluoromethoxy)phenyl]butanamide]
500 to 10000		CCOc1ccc(C(=O)CCC(=O)Nc2cc(-c3ccccc3C(=O)O)cc(-c3ccccc3)n2)cc1OCC [Example 148, 2-(2-{[4-(3,4-diethoxyphenyl)-4-oxobutanoyl]amino}-6-phenylpyridin-4-yl)benzoic acid]
500 to 10000		Cn1cc(-c2cc(NC(=O)CCC(=O)c3ccc4c(c3)CCO4)nc(-c3ccccc3)c2)cn1 [Example 153, 4-(2,3-dihydro-1-benzofuran-5-yl)-N-[4-(1-methyl-1H-pyrazol-4-yl)-6-phenylpyridin-2-yl]-4-oxobutanamide]
50 to 500		COc1ccc(-c2cc(NC(=O)CCC(=O)c3ccc4c(c3)CCO4)nc(-c3ccccc3)c2)cc1 [Example 155, 4-(2,3-dihydro-1-benzofuran-5-yl)-N-[4-(4-methoxyphenyl)-6-phenylpyridin-2-yl]-4-oxobutanamide]
500 to 10000		CCOc1ccc(C(=O)CCC(=O)Nc2sc(-c3ccccc3)nc2-c2ccccc2)cc1 [Example 66, 4-(4-ethoxyphenyl)-N-(2,4-diphenyl-1,3-thiazol-5-yl)-4-oxobutanamide]
500 to 10000		CCOc1ccc(C(=O)CCC(=O)Nc2cc3ccccc3c(N3CCCCC3)n2)cc1OCC [Example 85, 4-(3,4-diethoxyphenyl)-4-oxo-N-[1-(piperidin-1-yl)isoquinolin-3-yl]butanamide]
500 to 10000		O=C(O)CCc1ccc(-c2cc(NC(=O)CCC(=O)c3ccc4c(c3)CCO4)nc(-c3ccccc3)c2)cc1 [Example 157, 3-[4-(2-{[4-(2,3-dihydro-1-benzofuran-5-yl)-4-oxobutanoyl]amino}-6-phenylpyridin-4-yl)phenyl]propanoic acid]
50 to 500		O=C(CCC(=O)c1ccc2c(c1)CCO2)Nc1cc(-c2ccccc2)cc(-c2ccccc2)n1 [Example 104, 4-(2,3-dihydro-1-benzofuran-5-yl)-N-(4,6-diphenylpyridin-2-yl)-4-oxobutanamide]
	50 to 500	CCOc1ccc(C(=O)CCC(=O)Nc2cc(-c3ccc(F)cc3)cc(-c3ccccc3)n2)cc1OCC [Example 43, 4-(3,4-diethoxyphenyl)-N-(4-(4-fluorophenyl)-6-phenylpyridin-2-yl)-4-oxobutanamide]
10 to 50		O=C(CCC(=O)c1ccc2c(c1)OCCCO2)Nc1nc(-c2ccccc2)c(Cc2ccccc2)s1 [Example 68, N-(5-benzyl-4-phenyl-1,3-thiazol-2-yl)-4-(3,4-dihydro-2H-1,5-benzodioxepin-7-yl)-4-oxobutanamide]
10 to 50		O=C(CCC(=O)c1ccc2c(c1)CCO2)Nc1cc(-c2ccc3[nH]ccc3c2)cc(-c2ccccc2)n1 [Example 154, 4-(2,3-dihydro-1-benzofuran-5-yl)-N-[4-(1H-indol-5-yl)-6-phenylpyridin-2-yl]-4-oxobutanamide]
	50 to 500	CCOc1ccc(C(=O)CCC(=O)Nc2cc(-c3ccccc3)c(CC3CCCCC3)s2)cc1OCC [Example 46, N-(5-(cyclohexylmethyl)-4-phenyl-2-thienyl)-4-(3,4-diethoxyphenyl)-4-oxobutanamide]
50 to 500		O=C(CCC(=O)c1ccc2c(c1)CCO2)Nc1cc(-c2cccc(CCCO)c2)cc(-c2ccccc2)n1 [Example 168, 4-(2,3-dihydro-1-benzofuran-5-yl)-N-{4-[3-(3-hydroxypropyl)phenyl]-6-phenylpyridin-2-yl}-4-oxobutanamide]

IC50 [1] [nM]	IC50 [2] [nM]	Structure (SMILES)
	≤ 10	CCOc1cccc(C(=O)CCC(=O)Nc2nc(-c3ccccc3)c(Cc3ccccc3)s2)c1 [Example 5, N-(5-benzyl-4-phenyl-1,3-thiazol-2-yl)-4-(3-ethoxyphenyl)-4-oxobutanamide]
10 to 50		CCc1ccc(C(=O)CCC(=O)Nc2nc(-c3ccccc3)c(Cc3ccccc3)s2)s1 [Example 72, N-(5-benzyl-4-phenyl-1,3-thiazol-2-yl)-4-(5-ethyl-2-thienyl)-4-oxobutanamide]
50 to 500		O=C(CCC(=O)c1ccc2c(c1)CCO2)Nc1cc(-c2ccc(CO)cc2)cc(-c2ccccc2)n1 [Example 156, 4-(2,3-dihydro-1-benzofuran-5-yl)-N-{4-[4-(hydroxymethyl)phenyl]-6-phenylpyridin-2-yl}-4-oxobutanamide]
10 to 50		O=C(CCC(=O)c1ccc2c(c1)CCO2)Nc1cc(-c2cccc(O)c2)cc(-c2ccccc2)n1 [Example 165, 4-(2,3-dihydro-1-benzofuran-5-yl)-N-[4-(3-hydroxyphenyl)-6-phenylpyridin-2-yl]-4-oxobutanamide]
50 to 500		O=C(CCC(=O)c1ccc2c(c1)CCCC2)Nc1cc(-c2ccccc2)c2cc(Cl)ccc2n1 [Example 75, N-(6-chloro-4-phenylquinolin-2-yl)-4-oxo-4-(5,6,7,8-tetrahydronaphthalen-2-yl)butanamide]
≤ 10		CCOc1ccc(C(=O)CCC(=O)Nc2cc(-c3ccc4[nH]ccc4c3)cc(-c3ccccc3)n2)cc1OCC [Example 121, 4-(3,4-diethoxyphenyl)-N-[4-(1H-indol-5-yl)-6-phenylpyridin-2-yl]-4-oxobutanamide]
	50 to 500	CCOc1cccc(C(=O)CCC(=O)Nc2cc(-c3ccccc3)c(Cc3ccccc3)s2)c1 [Example 45, N-(5-benzyl-4-phenyl-2-thienyl)-4-(3-ethoxyphenyl)-4-oxobutanamide]
	500 to 10000	CCOc1ccc(C(=O)CCC(=O)Nc2cc(-c3ccc(OCC(=O)O)cc3)c3ccccc3n2)cc1OCC [Example 23, [4-(2-{[4-(3,4-diethoxyphenyl)-4-oxobutanoyl]amino}quinolin-4-yl)phenoxy]acetic acid]
10 to 50		CCOc1ccc(C(=O)CCC(=O)Nc2cc(-c3ccc(CO)cc3)cc(-c3ccccc3)n2)cc1OCC [Example 124, 4-(3,4-diethoxyphenyl)-N-{4-[4-(hydroxymethyl)phenyl]-6-phenylpyridin-2-yl}-4-oxobutanamide]
10 to 50		N#CCc1cccc(-c2cc(NC(=O)CCC(=O)c3ccc4c(c3)CCO4)nc(-c3ccccc3)c2)c1 [Example 164, N-{4-[3-(cyanomethyl)phenyl]-6-phenylpyridin-2-yl}-4-(2,3-dihydro-1-benzofuran-5-yl)-4-oxobutanamide]
50 to 500		O=C(CCC(=O)c1ccc2c(c1)CCO2)Nc1cc(-c2cccnc2)cc(-c2ccccc2)n1 [Example 114, 4-(2,3-dihydro-1-benzofuran-5-yl)-4-oxo-N-(6′-phenyl-3,4′-bipyridine-2′-yl)butanamide]
≤ 10		CCOc1ccc(C(=O)CCC(=O)Nc2cc(-c3ccccc3CO)cc(-c3ccccc3)n2)cc1OCC [Example 147, 4-(3,4-diethoxyphenyl)-N-{4-[2-(hydroxymethyl)phenyl]-6-phenylpyridin-2-yl}-4-oxobutanamide]
	50 to 500	CCOc1ccc(C(=O)CCC(=O)Nc2cc(OCc3ccccc3)cc(-c3ccccc3)n2)cc1OCC [Example 42, 4-(3,4-diethoxyphenyl)-N-(4-(benzyloxy)-6-phenylpyridin-2-yl)-4-oxobutanamide]
	50 to 500	CCOc1ccc(C(=O)NCCNC(=O)c2cc(-c3ccccc3)n(-c3ccc(OC)cc3)c2C)cc1 [Example 64, N-{2-[(4-ethoxybenzoyl)amino]ethyl}-1-(4-methoxyphenyl)-2-methyl-5-phenyl-1H-pyrrole-3-carboxamide]
50 to 500		CN(C)c1ccc(-c2cc(NC(=O)CCC(=O)c3ccc4c(c3)CCO4)nc(-c3ccccc3)c2)cc1 [Example 162, 4-(2,3-dihydro-1-benzofuran-5-yl)-N-{4-[4-(dimethylamino)phenyl]-6-phenylpyridin-2-yl}-4-oxobutanamide]
50 to 500		CCOc1cc(C)c(C(=O)CCC(=O)Nc2cc(-c3ccccc3)c3cc(Cl)ccc3n2)cc1OCC [Example 73, N-(6-chloro-4-phenylquinolin-2-yl)-4-(4,5-diethoxy-2-methylphenyl)-4-oxobutanamide]
